Values quoted from earlier work, collected in patent US20060198926A1, “ALPHA-PYRONE COMPOSITION FOR CONTROLLING CRAVING AND AS A SUBSTITUTE FOR ALCOHOL” (priority 1999, published 2006).

Tested on: dopaminergic neurons of the nucleus accumbens
Conditions: administered in vivo by microdialysis into the nucleus accumbens (Baum 1998)

## COc1ccc(/C=C/c2cc(OC)cc(=O)o2)cc1 [yangonin]
  levels of dopamine in the nucleus accumbens: decreases dopamine to undetectable levels

## COc1cc(/C=C/c2ccccc2)oc(=O)c1 [desmethoxyyangonin]
  levels of dopamine in the nucleus accumbens: increase in dopamine
